Measurements published in patent publication US20140186325A1, “Methods of Cancer Treatment and Prevention Through the Modulation of SIRT4 Activity” (President and Fellows of Harvard College, priority 2011, published 2014).

How the values were obtained:
Format in all cases: cell-based
[1] = system: SIRT4 KO cells; assay: Glutamine uptake of SIRT4 KO cells with glutaminolysis inhibitors; conditions: for glutamine uptake: 10 μM BPTES, 50 μM EGCG
Method: (§1) As described above, SIRT4 represses glutamine-derived mitochondrial anaplerosis. This node was investigated further using a pharmacological and genetic approach. GLS is the first required enzyme for mitochondrial glutamine metabolism, and catalyzes the hydrolysis of glutamine to glutamate and ammonia. […] Drugs that block glutamate dehydrogenase (GDH) activity were also examined. There were no effects of a GDH inhibitor, 50 μM of Epigallocatechin gallate (EGCG), in glutamine uptake. Moreover, SIRT4 overexpression could no longer inhibit glutamine uptake and ammonia production when GLS1 was targeted using short hairpin RNA (shRNA) (FIG. 13b, c). Finally, cells were treated with chemical inhibitors of mitochondrial glutaminolysis in order to probe the model that suppressing this node could block the repression of glutamine uptake by DNA damage.

[2] = system: HeLa cells; assay: Proliferation of control and SIRT4-expressing HeLa cells; conditions: media containing BPTES
[3] = system: mitochondrial glutaminolysis; assay: Repression of glutamine uptake by UV in the presence of inhibitors of mitochondrial glutaminolysis; conditions: in the presence of the inhibitor
Method: as §1

[4] = system: SIRT4 KO MEFs; assay: Proliferation of SIRT4 KO MEFs; conditions: SIRT4 KO versus WT MEFs cultured with BPTES
Method: To test whether enhanced glutamine metabolism drove the proliferative phenotype of KO cells, cells were cultured with BPTES and proliferation was measured.

[5] = system: MEF cells; assay: Metabolite levels in culture media (BioProfile FLEX analyzer), MEF cells; conditions: 14 μM for 12 hours
Method: (§2) The relationship between glutamine metabolism and DNA damage was investigated. HepG2 cells and MEF cells were treated with either 14 μM camptothecin (CPT) for 12 hours or 50 J/m^2 ultra-violet (UV) radiation, both of which are known to induce DNA damage in cells. Glucose, glutamine, lactate and ammonia (NH4^+) levels in culture media were measured using the BioProfile FLEX analyzer (Nova Biomedical) according to the manufacturer's instructions.

[6] = system: SIRT4 protein; assay: SIRT4 protein expression by western blot, MEF cells
[7] = system: HepG2 cells; assay: Metabolite levels in culture media (BioProfile FLEX analyzer), HepG2 cells; conditions: 14 μM for 12 hours
Method: as §2

[8] = system: SIRT4; assay: SIRT4 expression level after genotoxic stress, HEK293T cells; conditions: 14 μM CPT, 25 μM ETS, 48 μM tunicamycin
Source text: The relationship between sirtuin expression and DNA damage was next investigated.

[9] = system: SIRT4 protein; assay: SIRT4 protein expression by western blot, HEK293T cells
[10] = system: HepG2 cells; assay: Relative ATP/ADP ratio of HepG2 cells stably expressing human SIRT4 or SIRT4 mutant; conditions: CPT (14 μM) + oligomycin (5 g/ml) for 18 hours
Method: The relationship between SIRT4 and mitochondrial metabolism was next investigated. The relative ATP/ADP ratio of HepG2 cells that stably expressed human SIRT4 or SIRT4 mutant was measured following treatment with DMSO, CPT (14 μM) or CPT+oligomycin ([…]) for 18 hours.

## O=C(Cc1ccccc1)Nc1nnc(CCSCCc2nnc(NC(=O)Cc3ccccc3)s2)s1 [BPTES, bis-2-(5-phenylacetoamido-1,2,4-thiadiazol-2-yl)ethyl sulfide]
[1]; 10 μM
  increased glutamine consumption of SIRT4 KO cells: rescued
[1]
  glutamine uptake: repressed glutamine uptake
[2]
  proliferation of control and SIRT4-expressing cells: proliferated at similar rates
[3]
  repression of glutamine uptake by UV treatment: could no longer repress glutamine uptake
[4]
  increased proliferation of KO cells: completely abrogated

## CC[C@@]1(O)C(=O)OCc2c1cc1n(c2=O)Cc2cc3ccccc3nc2-1 [CPT, camptothecin]
[5]
  NH4+ production: significant reductions
  glutamine consumption: significant reductions
[6]
  SIRT4 protein expression: increased SIRT4 protein expression
[7]
  NH4+ production: significant reductions
  glutamine consumption: significant reductions
[8]
  level of SIRT4 expression versus length of exposure: correlated with the length of time
[9]
  SIRT4 protein expression: increased SIRT4 protein expression

## O=C(O[C@@H]1Cc2c(O)cc(O)cc2O[C@@H]1c1cc(O)c(O)c(O)c1)c1cc(O)c(O)c(O)c1 [EGCG, Epigallocatechin gallate]
[1]
  glutamine uptake: no effects

## COc1cc([C@@H]2c3cc4c(cc3[C@@H](O[C@@H]3O[C@@H]5CO[C@@H](C)O[C@H]5[C@H](O)[C@H]3O)[C@H]3COC(=O)[C@H]23)OCO4)cc(OC)c1O [ETS, etoposide]
[6]
  SIRT4 protein expression: increased SIRT4 protein expression
[9]
  SIRT4 protein expression: increased SIRT4 protein expression

## CC[C@H]1/C=C/C=C/C[C@@H](C)[C@H](O)[C@@](C)(O)C(=O)[C@@H](C)[C@H](O)[C@@H](C)C(=O)[C@@H](C)[C@H](O)[C@@H](C)/C=C/C(=O)O[C@@H]2[C@H](C)[C@H](CC1)O[C@]1(CC[C@H](C)[C@H](C[C@@H](C)O)O1)[C@H]2C [oligomycin]
[10]
  difference in ATP/ADP ratio between SIRT4 and mutant SIRT4 over-expressing cells after CPT: difference disappeared

## tunicamycin
[8]
  level of SIRT4 expression versus length of exposure: correlated with the length of time
